In patent publication US20250313563A1, “GLYCOGEN SYNTHASE KINASE 3 INHIBITORS AND USES THEREOF” (The Broad Institute, Inc., priority 2022, published 2025):
Read-outs that look alike come from different tables or passages of the source.

Tests used:
[1] = target: GSK3b (GST-full length GSK3b) (Homo sapiens (Human), UniProt P49841); experiment: GSK3b TR-FRET kinase assay; assay type: biochemical
How it was run: (§1)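 Compound preincubated 30 min, then 1 nM GST-full-length GSK3α or GSK3b run 100 min at ambient temperature with 200 nM biotinylated, S645-prephosphorylated glycogen synthase 631-650 peptide in Tris pH 7.5, MgCl2, DTT, BSA, 1% DMSO. ATP 4 μM (α) or 2 μM (β), or 1 mM. EDTA-quenched; Tb-anti-pSer641/streptavidin-d2 TR-FRET 665/615 ratio gave IC50.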

[2] = target: GSK3α (GST-full length GSK3α) (Homo sapiens (Human), UniProt P49840); experiment: GSK3α TR-FRET kinase assay; assay type: biochemical
How it was run: as §1

[3] = 1 nM GSK3b, 2 μM ATP, 30 minute preincubation, Table 16, read-out: GSK3-B TR-FRET BIOCHEMICAL (TR-FRET)
[4] = 1 nM GSK3α, 4 μM ATP, 30 minute preincubation, Table 16, read-out: GSK3-A TR-FRET BIOCHEMICAL (TR-FRET)
[5] = 1 nM GSK3b, 2 μM ATP, 30 minute preincubation, Table 16, read-out: GSK3-B TR-FRET BIOCHEMICAL (TR-FRET), IC50
[6] = 1 nM GSK3α, 4 μM ATP, 30 minute preincubation, Table 16, read-out: GSK3-A TR-FRET BIOCHEMICAL (TR-FRET), IC50
[7] = 1 nM GSK3b, 2 μM ATP, 30 minute preincubation, read-out: GSK3-B TR-FRET BIOCHEMICAL (TR-FRET), IC50
[8] = 1 nM GSK3α, 4 μM ATP, 30 minute preincubation, read-out: GSK3-A TR-FRET BIOCHEMICAL (TR-FRET), IC50
[9] = read-out: GSK3-B (TR-FRET 1 mM ATP), GMean, IC50, 1 mM ATP, geometric mean
[10] = read-out: GSK3-A (TR-FRET 1 mM ATP), GMean, IC50, 1 mM ATP, geometric mean

Sequence of GSK3b (GST-full length GSK3b) (P49841 whole entry): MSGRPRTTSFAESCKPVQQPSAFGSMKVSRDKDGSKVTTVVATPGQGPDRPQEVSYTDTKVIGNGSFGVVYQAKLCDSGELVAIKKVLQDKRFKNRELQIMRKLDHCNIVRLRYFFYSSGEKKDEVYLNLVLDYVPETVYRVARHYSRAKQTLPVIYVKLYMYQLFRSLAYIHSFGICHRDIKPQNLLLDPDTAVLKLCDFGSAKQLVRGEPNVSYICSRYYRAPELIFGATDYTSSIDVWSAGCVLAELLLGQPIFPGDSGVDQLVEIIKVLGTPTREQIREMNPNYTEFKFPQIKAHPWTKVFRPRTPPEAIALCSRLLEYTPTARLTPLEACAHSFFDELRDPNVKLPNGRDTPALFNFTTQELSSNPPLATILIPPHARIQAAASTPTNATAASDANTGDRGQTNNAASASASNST
Sequence of GSK3α (GST-full length GSK3α) (P49840 whole entry): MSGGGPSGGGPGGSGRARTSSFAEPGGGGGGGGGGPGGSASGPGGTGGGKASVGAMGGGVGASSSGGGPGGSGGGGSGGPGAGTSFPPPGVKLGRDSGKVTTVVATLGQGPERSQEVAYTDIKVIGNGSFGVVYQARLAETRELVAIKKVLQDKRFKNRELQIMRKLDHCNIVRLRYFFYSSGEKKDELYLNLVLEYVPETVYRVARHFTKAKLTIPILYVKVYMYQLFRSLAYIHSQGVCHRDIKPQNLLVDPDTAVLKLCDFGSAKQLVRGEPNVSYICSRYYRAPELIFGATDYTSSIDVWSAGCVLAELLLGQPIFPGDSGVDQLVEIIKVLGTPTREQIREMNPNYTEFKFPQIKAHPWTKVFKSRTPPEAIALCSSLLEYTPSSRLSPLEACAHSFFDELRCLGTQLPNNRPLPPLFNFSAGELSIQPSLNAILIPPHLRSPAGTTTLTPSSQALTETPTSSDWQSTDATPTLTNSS

| Structure (SMILES) | IC50 [1, 3] [nM] | IC50 [2, 4] [nM] | IC50 [1, 5] [nM] | IC50 [2, 6] [nM] | other results |
| --- | --- | --- | --- | --- | --- |
| CC1(C)CC2=C(C(=O)[C@@H]1F)C1(CCOCC1)c1c[nH]nc1N2 [Compound 883835] | 100 to 1000 | 100 to 1000 |  |  |  |
| CC1(C)CC2=C(C(=O)[C@H]1F)C1(CCOCC1)c1c[nH]nc1N2 [Compound 883836] | 1000 to 5000 | 100 to 1000 |  |  |  |
| C[C@H]1CC[C@]2(C1)C1=C(CC(C)(C)CC1=O)Nc1n[nH]cc12 [Compound 883840] | 100 to 1000 | 100 to 1000 |  |  |  |
| C[C@@H]1CC[C@@]2(C1)C1=C(CC(C)(C)CC1=O)Nc1n[nH]cc12 [Compound 883841] | 100 to 1000 | 100 to 1000 |  |  |  |
| CC1(C)CC(=O)C2=C(C1)Nc1n[nH]cc1[C@@]21CCCC(C)(C)C1 [Compound 883846] | 1000 to 5000 | 100 to 1000 |  |  |  |
| CCC1(c2cccc(-c3ccnc(OC)c3)c2)C2=C(CC(C)(C)CC2=O)Nc2n[nH]cc21 (stereo not shown) [Compound 883850] |  |  | 100 to 1000 | ≤ 100 |  |
| CCC1(c2cccc(-c3c(C)nn(C)c3C)c2)C2=C(CC(C)(C)CC2=O)Nc2n[nH]cc21 (stereo not shown) [Compound 883851] |  |  | ≤ 100 | ≤ 100 |  |
| CC1(C)CC(=O)C2=C(C1)Nc1n[nH]cc1C21CC(C)(C)C1 [Compound 883864] | 100 to 1000 | ≤ 100 |  |  |  |
| Cc1[nH]nc2c1C1(CCCCC1)C1=C(CC(C)(C)CC1=O)N2 [Compound 883865] | 100 to 1000 | ≤ 100 |  |  |  |
| CCC1(c2ccccc2)C2=C(CCN(C)C2=O)Nc2n[nH]cc21 (stereo not shown) [Compound 883867] |  |  |  |  | IC50 [1, 7]: > 5000 nM; IC50 [2, 8]: > 5000 nM |
| CCC1(c2cccc(C)c2)C2=C(CC(C)(C)CC2=O)Nc2n[nH]c(C(F)(F)F)c21 (stereo not shown) [Compound 883873] |  |  | ≤ 100 | ≤ 100 | IC50 [1, 9]: 100 to 1000 nM; IC50 [2, 10]: ≤ 100 nM |
| CCC1(c2cccc(N3CCCC3)c2)C2=C(CC(C)(C)CC2=O)Nc2n[nH]c(C)c21 (stereo not shown) [Compound 883874] |  |  | ≤ 100 | ≤ 100 | IC50 [1, 9]: 100 to 1000 nM; IC50 [2, 10]: ≤ 100 nM |
| CC[C@]1(c2cccc(N3CCCC3)c2)C2=C(CC(C)(C)CC2=O)Nc2n[nH]c(C)c21 [Compound 883875] |  |  | 1000 to 5000 | 100 to 1000 |  |
| CC1(C)CC(=O)C2=C(C1)Nc1n[nH]cc1C21CCN(CC(F)F)CC1 [Compound 883962] | 100 to 1000 | 100 to 1000 |  |  |  |
| CC1(C)CC(=O)C2=C(C1)Nc1n[nH]cc1C21CCC(F)(F)CC1 [Compound 883972] | 100 to 1000 | ≤ 100 |  |  |  |
| CC1(C)CC(=O)C2=C(C1)Nc1n[nH]cc1C21CCSC1 (stereo not shown) [Compound 883973] | 100 to 1000 | ≤ 100 |  |  |  |
| CC1(C)CC(=O)C2=C(C1)Nc1n[nH]cc1C21CCC2(CC1)COC2 [Compound 883977] |  |  |  |  | IC50 [1, 7]: 100 to 1000 nM; IC50 [2, 8]: ≤ 100 nM |
| CC1(C)CC(=O)C2=C(C1)Nc1n[nH]cc1C21CCCCCC1 [Compound 883978] | 100 to 1000 | 100 to 1000 |  |  |  |
| CC[C@@]1(c2cccc(C(F)(F)F)c2)C2=C(Nc3n[nH]cc31)[C@H](C)CN(C)C2=O [Compound 883980] |  |  |  |  | IC50 [1, 7]: ≤ 100 nM; IC50 [1, 9]: 1000 to 5000 nM; IC50 [2, 8]: ≤ 100 nM; IC50 [2, 10]: 100 to 1000 nM |
| CC[C@]1(c2cccc(C(F)(F)F)c2)C2=C(Nc3n[nH]cc31)[C@@H](C)CN(C)C2=O [Compound 883981] |  |  |  |  | IC50 [1, 7]: > 5000 nM; IC50 [2, 8]: > 5000 nM |
| CC[C@]1(c2cccc(C(F)(F)F)c2)C2=C(Nc3n[nH]cc31)[C@H](C)CN(C)C2=O [Compound 883982] |  |  |  |  | IC50 [1, 7]: > 5000 nM; IC50 [2, 8]: > 5000 nM |
| CCC1(c2cccc(-c3ccncc3)c2)C2=C(CC(C)(C)CC2=O)Nc2n[nH]cc21 (stereo not shown) [Compound 883984] |  |  | ≤ 100 | ≤ 100 |  |
| CCC1(c2cccc(-c3ccncc3F)c2)C2=C(CC(C)(C)CC2=O)Nc2n[nH]cc21 (stereo not shown) [Compound 883986] |  |  | ≤ 100 | ≤ 100 |  |
